Results reported in ChEMBL document CHEMBL1201862, “PubChem BioAssay data set” (2004).
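Dose response: 5 concentrations. Exposure: 48 h. Format: 96-well plates. Endpoint: linear interpolation; highest concentration if not reached. Abbreviation: GI50, concentration required for 50% inhibition of growth.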 Calls of active or inactive are those of the source. No stated cut-off is given here; in the data, active = GI50 up to about 1.1 µM and inactive = higher.

How the values were obtained:
Experiment in all cases: NCI tumour cell line growth inhibition, 48 h
786-0 = system: 786-0
CCRF-CEM = system: CCRF-CEM
COLO 205 = system: COLO 205
HT-29 = system: HT-29
KM-20L2 = system: KM-20L2
NCI-H226 = system: NCI-H226
NCI-H522 = system: NCI-H522
OVCAR-3 = system: OVCAR-3
OVCAR-5 = system: OVCAR-5
RXF 393 = system: RXF 393
SF-295 = system: SF-295
SK-MEL-28 = system: SK-MEL-28
TK-10 = system: TK-10
HCT-116 = system: HCT-116
HOP-92 = system: HOP-92
SF-539 = system: SF-539
DU-145 = system: DU-145
Hs-578T = system: Hs-578T
MDA-N = system: MDA-N
SR = system: SR

SMILES | GI50 (786-0) | GI50 (CCRF-CEM) | GI50 (COLO 205) | GI50 (HT-29) | GI50 (KM-20L2) | GI50 (NCI-H226) | GI50 (NCI-H522) | GI50 (OVCAR-3) | GI50 (OVCAR-5) | GI50 (RXF 393) | GI50 (SF-295) | GI50 (SK-MEL-28) | GI50 (TK-10) | GI50 (HCT-116) | GI50 (HOP-92) | GI50 (SF-539) | GI50 (DU-145) | GI50 (Hs-578T) | GI50 (MDA-N) | GI50 (SR)
Cc1cc2c(c(C(=O)O)c1C)-c1cccc(Cl)c1C2=O | > 100 µM (inactive) | > 100 µM (inactive) | > 100 µM (inactive) | > 100 µM (inactive) | > 100 µM (inactive) | > 100 µM (inactive) | > 100 µM (inactive) | > 100 µM (inactive) | > 100 µM (inactive) | > 100 µM (inactive) | > 100 µM (inactive) | > 100 µM (inactive) | > 100 µM (inactive) | – | – | – | – | – | – | –
CCOc1ccc(/N=C/c2cccc3cccnc23)cc1 | > 100 µM (inactive) | 62.5 µM (inactive) | > 100 µM (inactive) | > 100 µM (inactive) | > 100 µM (inactive) | > 100 µM (inactive) | – | > 100 µM (inactive) | > 100 µM (inactive) | > 100 µM (inactive) | > 100 µM (inactive) | > 100 µM (inactive) | > 100 µM (inactive) | 43.8 µM (inactive) | > 100 µM (inactive) | > 100 µM (inactive) | – | – | – | –
COc1ccc(NC(=O)NS(=O)(=O)c2ccc(C)cc2)nn1 | > 100 µM (inactive) | > 100 µM (inactive) | > 100 µM (inactive) | > 100 µM (inactive) | > 100 µM (inactive) | > 100 µM (inactive) | > 100 µM (inactive) | > 100 µM (inactive) | > 100 µM (inactive) | – | > 100 µM (inactive) | > 100 µM (inactive) | > 100 µM (inactive) | – | > 100 µM (inactive) | > 100 µM (inactive) | – | – | – | –
CCN(CC)c1ccc(/N=C2/C=CC(=C(C#N)C#N)c3ccccc32)c(C)c1 | 2.22 µM (inactive) | 1.18 µM (inactive) | 2.64 µM (inactive) | 3.24 µM (inactive) | 1.95 µM (inactive) | – | – | 1.86 µM (inactive) | – | 1.08 µM (active) | 2.28 µM (inactive) | 1.64 µM (inactive) | 3.25 µM (inactive) | 1.95 µM (inactive) | 0.324 µM (active) | – | – | – | – | –
CCOc1ccc(NC(=O)CCC(=O)NN)cc1 | > 100 µM (inactive) | > 100 µM (inactive) | > 100 µM (inactive) | > 100 µM (inactive) | > 100 µM (inactive) | > 100 µM (inactive) | > 100 µM (inactive) | > 100 µM (inactive) | > 100 µM (inactive) | > 100 µM (inactive) | > 100 µM (inactive) | > 100 µM (inactive) | > 100 µM (inactive) | – | > 100 µM (inactive) | – | – | – | – | –
c1ccc2c(c1)Sc1ccccc1N2C1CN2CCC1CC2 (centres undefined) | 13 µM (inactive) | 16.5 µM (inactive) | 16.8 µM (inactive) | 17.3 µM (inactive) | 15.2 µM (inactive) | 4.09 µM (inactive) | 18.8 µM (inactive) | 15.8 µM (inactive) | > 10 µM (inactive) | – | 15.3 µM (inactive) | 15.8 µM (inactive) | 14 µM (inactive) | 15.5 µM (inactive) | – | 14 µM (inactive) | – | – | – | –
Cc1cc(Cl)ccc1NC(=O)CCCC(=O)C1CCC/C1=N\NC(=O)CC#N (centres undefined) | > 100 µM (inactive) | > 100 µM (inactive) | > 100 µM (inactive) | > 100 µM (inactive) | > 100 µM (inactive) | > 100 µM (inactive) | > 100 µM (inactive) | > 100 µM (inactive) | > 100 µM (inactive) | – | > 100 µM (inactive) | > 100 µM (inactive) | > 100 µM (inactive) | > 100 µM (inactive) | > 100 µM (inactive) | > 100 µM (inactive) | – | – | – | –
CCCCCC(=O)OCCOCCOCCOCCOCCOCc1ccccc1 | > 100 µM (inactive) | – | > 100 µM (inactive) | – | > 100 µM (inactive) | > 100 µM (inactive) | – | > 100 µM (inactive) | > 100 µM (inactive) | > 100 µM (inactive) | > 100 µM (inactive) | > 100 µM (inactive) | > 100 µM (inactive) | > 100 µM (inactive) | > 100 µM (inactive) | > 100 µM (inactive) | – | – | – | –
O=C(/C=C1/NC(=O)CS1)Nc1ccccc1 | > 100 µM (inactive) | > 100 µM (inactive) | > 100 µM (inactive) | > 100 µM (inactive) | > 100 µM (inactive) | > 100 µM (inactive) | > 100 µM (inactive) | > 100 µM (inactive) | > 100 µM (inactive) | > 100 µM (inactive) | > 100 µM (inactive) | > 100 µM (inactive) | > 100 µM (inactive) | > 100 µM (inactive) | > 100 µM (inactive) | > 100 µM (inactive) | – | – | – | –
C=CCN(N=O)C(=O)N(CCC)CCCC(NC(C)=O)C(=O)NCc1ccccc1 (centres undefined) | > 100 µM (inactive) | > 100 µM (inactive) | > 100 µM (inactive) | > 100 µM (inactive) | > 100 µM (inactive) | – | > 100 µM (inactive) | > 100 µM (inactive) | > 100 µM (inactive) | > 100 µM (inactive) | > 100 µM (inactive) | > 100 µM (inactive) | > 100 µM (inactive) | – | – | > 100 µM (inactive) | – | – | – | –
COC(=O)c1ccc(C(=O)OC)c2nc3cc(C)ccc3nc12 | > 100 µM (inactive) | > 100 µM (inactive) | > 100 µM (inactive) | > 100 µM (inactive) | > 100 µM (inactive) | 51.1 µM (inactive) | – | > 100 µM (inactive) | > 100 µM (inactive) | – | > 100 µM (inactive) | > 100 µM (inactive) | > 100 µM (inactive) | – | > 100 µM (inactive) | > 100 µM (inactive) | – | – | – | –
CC1CC(c2ccccc2)=Nc2ccccc2S1(=O)=O (centres undefined) | 17.2 µM (inactive) | 19.7 µM (inactive) | 20.4 µM (inactive) | – | 17.8 µM (inactive) | – | 17.3 µM (inactive) | 18.5 µM (inactive) | 18.6 µM (inactive) | 15.3 µM (inactive) | 20.2 µM (inactive) | 16.3 µM (inactive) | 23 µM (inactive) | 1.75 µM (inactive) | 27.9 µM (inactive) | 18.4 µM (inactive) | – | – | – | –
O=S(=O)(Nc1nc2ccccc2nc1N1CCCCCC1)c1ccccc1 | > 100 µM (inactive) | 34.5 µM (inactive) | > 100 µM (inactive) | 27.6 µM (inactive) | – | 27.9 µM (inactive) | 19.1 µM (inactive) | 17.1 µM (inactive) | 57.3 µM (inactive) | 19.1 µM (inactive) | 24.1 µM (inactive) | 28.2 µM (inactive) | 16.8 µM (inactive) | > 100 µM (inactive) | 7.8 µM (inactive) | 29.2 µM (inactive) | > 100 µM (inactive) | 17.5 µM (inactive) | > 100 µM (inactive) | 25.3 µM (inactive)
N=C(N)n1nc2c(c1O)CCC2 | > 100 µM (inactive) | > 100 µM (inactive) | > 100 µM (inactive) | > 100 µM (inactive) | – | > 100 µM (inactive) | > 100 µM (inactive) | > 100 µM (inactive) | > 100 µM (inactive) | > 100 µM (inactive) | > 100 µM (inactive) | > 100 µM (inactive) | > 100 µM (inactive) | > 100 µM (inactive) | > 100 µM (inactive) | > 100 µM (inactive) | > 100 µM (inactive) | > 100 µM (inactive) | > 100 µM (inactive) | < 0.01 µM (active)
